SMILES strings stand for the structures.

The target in assay [1] is T1, Bradykinin-1 receptor (Homo sapiens (Human), UniProt P46663). As to the kind of experiment: Receptor binding assay (B1R Binding Assay), [3H]-Kallidin (Des Arg10, Leu9) displacement. The following applies: membranes from CHO-K1 cells overexpressing Bradykinin-1 receptor; 6 nM radioligand. As to the method: Binding assays were done with membranes from CHO-K1 cells overexpressing Bradykinin-1 receptor.
To determine non-specific binding 10 μM Lys-(Des-Arg^9)-Bradykinin (Bachem) was added. Membranes were harvested through GF/B (glass fiber filter; PerkinElmer) plates, equilibrated with 0.5% polyethylenimine, air dried at 50° C. for 2 h. Radioactivity was determined by counting in a topcounter (NXT Packard).

Assay [2] addresses T1, Bradykinin-1 receptor. As to the kind of experiment: Calcium mobilization assay (FLIPR, Fluo-4) in GeneBLAzer Bradykinin (B1)-NFAT-bla CHO-K1 cells. It counts as cell-based. Conditions: antagonist activity; CHO-K1 cells stably overexpressing the human bradykinin 1 receptor; read-out: Ca mobilization Assay IC50.

T1 sequence (P46663 whole entry): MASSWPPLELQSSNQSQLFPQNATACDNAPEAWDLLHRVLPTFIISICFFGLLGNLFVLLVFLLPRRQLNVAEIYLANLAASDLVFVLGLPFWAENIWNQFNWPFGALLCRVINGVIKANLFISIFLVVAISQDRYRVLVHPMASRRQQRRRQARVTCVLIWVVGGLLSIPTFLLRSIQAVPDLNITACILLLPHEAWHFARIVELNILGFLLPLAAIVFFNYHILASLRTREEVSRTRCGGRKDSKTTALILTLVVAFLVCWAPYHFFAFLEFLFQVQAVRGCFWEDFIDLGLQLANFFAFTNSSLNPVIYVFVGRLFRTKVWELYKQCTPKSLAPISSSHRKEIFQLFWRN

On Bradykinin-1 receptor [1], `COc1cc(C(=O)NC2(C(=O)N[C@H]3CCc4cc(-c5cc(Cl)cc(F)c5-c5noc(C)n5)ccc43)CC2)on1` [Example 30, 3-Methoxy-isoxazole-5-carboxylic acid(1-{(S)-5-[5-chloro-3-fluoro-2-(5-methyl-[1,2,4]oxadiazol-3-yl)-phenyl]-indan-1-ylcarbamoyl}-cyclopropyl)-amide] showed a Ki of 3.9 nM. Also, on Bradykinin-1 receptor [2], the IC50 was 0.1 nM.

`Cc1nc(-c2c(F)cc(Cl)cc2-c2ccc3c(c2)CC[C@@H]3NC(=O)C2(NC(=O)c3cncnc3)COC2)no1` [Example 50, Pyrimidine-5-carboxylic acid (3-{(S)-5-[5-chloro-3-fluoro-2-(5-methyl-[1,2,4]oxadiazol-3-yl)-phenyl]-indan-1-ylcarbamoyl}-oxetan-3-yl)-amide]: on Bradykinin-1 receptor [1], affinity was put at a Ki of 4.8 nM. In addition, the IC50 at Bradykinin-1 receptor [2] came to 0.4 nM.

Turning to `Cc1nc(-c2c(F)cc(Cl)cc2-c2ccc3c(c2)CC[C@@H]3NC(=O)C2(NC(=O)c3ccno3)COC2)no1` [Example 51, Isoxazole-5-carboxylic acid (3-{(S)-5-[5-chloro-3-fluoro-2-(5-methyl-[1,2,4]oxadiazol-3-yl)-phenyl]-indan-1-ylcarbamoyl}-oxetan-3-yl)-amide], the affinity at Bradykinin-1 receptor [1] corresponds to a Ki of 11.8 nM. The IC50 on Bradykinin-1 receptor [2] came out at 2.7 nM.

Compound `Cc1cc(C(=O)NC2(C(=O)N[C@H]3CCc4cc(-c5cc(Cl)cc(F)c5-c5noc(C)n5)ccc43)COC2)on1` [Example 52, 3-Methyl-isoxazole-5-carboxylic acid (3-{(S)-5-[5-chloro-3-fluoro-2-(5-methyl-[1,2,4]oxadiazol-3-yl)-phenyl]-indan-1-ylcarbamoyl}-oxetan-3-yl)-amide] yielded an inhibition constant Ki at Bradykinin-1 receptor [1] of 25.7 nM. For the same compound, the IC50 on Bradykinin-1 receptor [2] is 4.3 nM.

The compound `COc1cc(C(=O)NC2(C(=O)N[C@H]3CCc4cc(-c5cc(Cl)cc(F)c5-c5noc(C)n5)ccc43)COC2)on1` [Example 53, 3-Methoxy-isoxazole-5-carboxylic acid (3-{(S)-5-[5-chloro-3-fluoro-2-(5-methyl-[1,2,4]oxadiazol-3-yl)-phenyl]-indan-1-ylcarbamoyl}-oxetan-3-yl)-amide] displayed a Ki on Bradykinin-1 receptor [1] of 3.6 nM. Also, the IC50 on Bradykinin-1 receptor [2] was 0.4 nM.

As a reminder, the Ki is a dissociation constant, usually derived from enzyme kinetics or from competition with a known ligand. A low value points to tighter binding. Usually IC50 stands for the midpoint of a concentration-inhibition curve.

Source of the values: patent US8592426B2, “Aryl-benzocycloalkyl amide derivatives” (Hoffmann—La Roche Inc., priority 2011, dated 2013).
